Source: publication PMC7175181 (Biomolecules, 2020)
Entries after “also recorded” stand apart in the source; their conditions may differ. No end group written: not given here.

Columns and labels:
[1] = target: T1, ACE (Homo sapiens, UniProt P12821); assay: In vitro ACE inhibition assay (ACE Kit-WST); type: biochemical; conditions: for IC50: ACE Kit-WST, 1 h at 37 °C, absorbance 450 nm, non-linear regression, mean of three independent experiments (n = 3); for Comparison of IC50 (ACE inhibition): n = 3, one-way ANOVA and Sidak's multiple-comparisons test
T1 construct: purchased Dojindo Laboratories ACE Kit-WST
T1 sequence (P12821 30-1306, species assumed): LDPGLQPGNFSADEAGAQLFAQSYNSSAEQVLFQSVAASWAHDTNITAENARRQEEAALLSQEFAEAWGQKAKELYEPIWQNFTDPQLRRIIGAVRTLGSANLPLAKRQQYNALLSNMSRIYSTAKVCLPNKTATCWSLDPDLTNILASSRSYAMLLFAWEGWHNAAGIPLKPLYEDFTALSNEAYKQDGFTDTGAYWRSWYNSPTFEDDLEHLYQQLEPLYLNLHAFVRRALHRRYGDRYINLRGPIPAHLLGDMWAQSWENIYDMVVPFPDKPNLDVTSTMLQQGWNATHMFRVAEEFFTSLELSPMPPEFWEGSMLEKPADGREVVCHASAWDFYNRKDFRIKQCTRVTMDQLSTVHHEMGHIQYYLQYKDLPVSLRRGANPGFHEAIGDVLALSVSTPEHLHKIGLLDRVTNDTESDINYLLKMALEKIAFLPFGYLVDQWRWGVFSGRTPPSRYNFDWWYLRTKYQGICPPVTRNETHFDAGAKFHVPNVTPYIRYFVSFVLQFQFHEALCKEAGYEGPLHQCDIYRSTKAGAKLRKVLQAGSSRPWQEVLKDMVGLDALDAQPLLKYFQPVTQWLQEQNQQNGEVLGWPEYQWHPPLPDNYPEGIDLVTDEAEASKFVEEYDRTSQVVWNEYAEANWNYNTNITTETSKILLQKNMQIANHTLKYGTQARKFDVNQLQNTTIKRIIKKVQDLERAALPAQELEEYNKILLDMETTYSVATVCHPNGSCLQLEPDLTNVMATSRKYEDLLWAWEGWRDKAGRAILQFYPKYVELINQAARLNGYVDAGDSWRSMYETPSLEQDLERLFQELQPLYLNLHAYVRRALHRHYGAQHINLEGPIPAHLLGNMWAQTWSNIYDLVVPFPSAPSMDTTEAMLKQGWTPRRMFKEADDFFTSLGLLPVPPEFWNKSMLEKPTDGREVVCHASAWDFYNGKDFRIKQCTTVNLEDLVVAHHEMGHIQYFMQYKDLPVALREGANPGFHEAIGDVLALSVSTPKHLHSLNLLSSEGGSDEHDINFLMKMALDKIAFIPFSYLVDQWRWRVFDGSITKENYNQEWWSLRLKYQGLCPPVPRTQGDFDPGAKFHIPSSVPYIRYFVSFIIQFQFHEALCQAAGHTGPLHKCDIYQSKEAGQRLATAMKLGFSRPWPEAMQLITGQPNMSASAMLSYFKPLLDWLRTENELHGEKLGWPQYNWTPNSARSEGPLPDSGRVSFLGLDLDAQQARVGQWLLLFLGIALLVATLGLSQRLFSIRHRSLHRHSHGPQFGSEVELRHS
Description: The inhibition of ACE was measured using the ACE Kit-WST (Dojindo Laboratories, Mashiki-machi, Japan). Custom synthesized hemorphin peptides ([…], […], YPWTQRF, and YPWTRRF) were purchased from New England Peptide (Gardner, MA, USA). Indicator working solution and enzyme working solution were prepared according to the manufacturer’s instructions. 10 µL of each dose of hemorphin was added to the wells of a 96-well microplate. 20 µL and 40 µL of deionized water were added in blank 1 and blank 2 wells. 20 µL of the substrate buffer was added to each well, followed by 20 µL of enzyme working solution in all of the sample wells and blank 1. The plate was incubated for 1 h at 37 °C. After the incubation period, 200 µL of indicator working solution was added to each well and then incubated at room temperature for 5 min. After incubation, plate absorbance was measured at 450 nm using Glomax Discover Microplate Reader (Promega, Madison, WI, USA). The inhibition of ACE was calculated using the following equation: Inhibition rate (%) = (Ablank1 − Asample)/(Ablank1 − Ablank2) × 100.
From the obtained data, IC50 was calculated using Prism 7 (GraphPad, San Diego, CA, USA) from a non-linear regression plot of ACE inhibition (%) against peptide concentration (µM).
Nonlinear regression was used to generate dose–response curves in Prism 7 (GraphPad, San Diego, CA, USA). The observed data are presented as mean ± SEM (Standard Error of the Mean). One-way or two-way analysis of variance (ANOVA), as appropriate, were carried out and a comparison of means was performed by Sidak’s multiple-comparisons test to estimate the statistical significance between the different treatments.

[2] = ref [15],[16]; cited from earlier work
From the text: Hemorphins are endogenous peptides that are produced from beta hemoglobin. Hemorphins of various lengths (4–10 amino acids) have been identified so far. These peptides are mainly produced in the plasma, brain, cerebrospinal fluid, and spinal cord. The decapeptide LVV-hemorphin-7 ([…]) is considered to be the longest form of hemorphin and is found abundantly in the mammalian nervous system. […] Numerous studies have reported various biological activities of hemor ...

[3] = cited from earlier work
From the text: Angiotensin-I converting enzyme (ACE) is a zinc metallopeptidase that is found in many tissues and biological fluids and it is an important player in regulating RAAS and kallikrein-kinnin system (KKS). There are two main mechanisms by which ACE causes hypertension. Firstly, ACE cleaves two amino acids from the decapeptide angiotensin I to produce the octapeptide angiotensin II, which is a strong vasoconstrictor. Secondly, ACE is involved in the degradation of bradykinnin, a potent vasodilator [5, 6]. ACE is associated with hypertension and remains an important target for the discovery of an ...

[4] = system: ACE; conditions: ref [53]; cited from earlier work
[5] = target: T1, ACE; set-up: method as in 2 sources, one per row (each row's own in cited_ref): ref [54] = [54]; PMID 7945362; doi:10.1006/bbrc.1994.2447; 54. Zhao Q. Sannier F. Garreau I. Guillochon D. Piot J.M. Inhibition and inhibition kinetics of angiotensin converting enzyme activity by hemorphins, isolated from a peptic bovine hemoglobin hydrolysa ||| ref [24] = [24]; PMID 12182948; doi:10.1016/S0196-9781(02)00083-9; 24. Fruitier-Arnaudin I. Cohen M. Bordenave S. Sannier F. Piot J.M. Comparative effects of angiotensin IV and two hemorphins on angiotensin-converting enzyme activity Peptides 2002 23 1465 1470 10.101; conditions: ref [54]; cited from earlier work
Description: An ACE inhibition assay was performed to evaluate the IC50 of these peptides to investigate this further.

| Compound | IC50 [1] [µM] | Comparison of IC50 (ACE inhibition) [1] | also measured |
| --- | --- | --- | --- |
| CC(C)C[C@H](N)C(=O)N[C@H](C(=O)N[C@H](C(=O)N[C@@H](Cc1ccc(O)cc1)C(=O)N1CCC[C@H]1C(=O)N[C@@H](Cc1c[nH]c2ccccc12)C(=O)N[C@H](C(=O)N[C@@H](CCC(N)=O)C(=O)N[C@@H](CCCNC(=N)N)C(=O)N[C@@H](Cc1ccccc1)C(=O)O)[C@@H](C)O)C(C)C)C(C)C | 12.6 | significantly lower than that of YPWTQRF (25.894 µM) | Stability compared to other hemorphins [2]: most stable |
| CC(C)C[C@H](N)C(=O)N[C@H](C(=O)N[C@H](C(=O)N[C@@H](Cc1ccc(O)cc1)C(=O)N1CCC[C@H]1C(=O)N[C@@H](Cc1c[nH]c2ccccc12)C(=O)N[C@H](C(=O)N[C@@H](CCCNC(=N)N)C(=O)N[C@@H](CCCNC(=N)N)C(=O)N[C@@H](Cc1ccccc1)C(=O)O)[C@@H](C)O)C(C)C)C(C)C | 6.6 | lower than YPWTRRF (9.310 µM); also recorded: the difference between LVVYPWTRRF and YPWTRRF was not significant | Comparison of IC50 (ACE inhibition) ([1]; listed as camel LVV-hemorphin-7): significantly less than non-camel LVV-hemorphin-7 (12.649 µM) (p < 0.05, n = 3) |
| C[C@H](CS)C(=O)N1CCC[C@H]1C(=O)O [captopril] |  |  | Side effects [3]: cough, kidney problems, angioedema, and allergic reactions |
| C[C@H](N[C@@H](CCc1ccccc1)C(=O)O)C(=O)N1CCC[C@H]1C(=O)O [enalaprilat] |  |  | Affinity for ACE compared to lisinopril [4]: lower affinity when compared to lisinopril |
| VVYPWTQRF |  |  | ACE inhibitory activity compared to other hemorphins [5]: the removal of the N-terminus leucine significantly decreased the ACE inhibition activity of VVYPWTQRF in comparison to LVVYPWTQRF |
| YPWTQRF [YPWTQRF] | 25.9 |  |  |
| YPWTRRF [YPWTRRF] | 9.31 | significantly lower IC50 | Comparison of IC50 (ACE inhibition) ([1]; listed as camel hemorphin-7): significantly lower than the non-camel hemorphin-7 (25.894 µM) (p < 0.001, n = 3) |
